PubChem BioAssay (NCI)
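Here, GI50 denotes the concentration required for 50% inhibition of growth. TGI is the concentration that stops growth completely.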

How the values were obtained:
Experiment in all cases: DTP human tumour cell line panel, 384-well format
[1] = tested on: K-562 leukemia
[2] = tested on: A498 renal
[3] = tested on: MDA-MB-468 breast
[4] = tested on: TK-10 renal
[5] = tested on: SN12C renal
[6] = tested on: SK-MEL-2 melanoma
[7] = tested on: HCT-15 colon
[8] = tested on: HL-60(TB) leukemia
[9] = tested on: MOLT-4 leukemia
[10] = tested on: MALME-3M melanoma
[11] = tested on: SK-MEL-5 melanoma
[12] = tested on: NCI/ADR-RES ovarian
[13] = tested on: SK-OV-3 ovarian
[14] = tested on: LOX IMVI melanoma
[15] = tested on: NCI-H226 lung
[16] = tested on: OVCAR-4 ovarian
[17] = tested on: SK-MEL-28 melanoma
[18] = tested on: SW-620 colon
[19] = tested on: MDA-MB-435 melanoma
[20] = tested on: SF-295 CNS
[21] = tested on: 786-0 renal
[22] = tested on: HCT-116 colon
[23] = tested on: SR leukemia
[24] = tested on: DU-145 prostate
[25] = tested on: UACC-257 melanoma
[26] = tested on: A549 NSCLC
[27] = tested on: OVCAR-5 ovarian
[28] = tested on: HT29 colon

C/C(=N\NC(=O)c1cccc(S(=O)(=O)N2CCN(C)CC2)c1)c1cc(Cl)ccc1O
GI50 [1]: 2620 nM
TGI [1]: 13.8 µM
GI50 [2]: 268 nM
TGI [2]: 20.1 µM
GI50 [3]: 177 nM
TGI [3]: 382 nM
GI50 [4]: 642 nM
TGI [4]: 19.8 µM
GI50 [5]: 735 nM
TGI [5]: 3.36 µM
GI50 [6]: 567 nM
TGI [6]: 3.58 µM
GI50 [7]: 301 nM
TGI [7]: 12.9 µM
GI50 [8]: 442 nM
TGI [8]: 1220 nM
GI50 [9]: 114 nM
TGI [9]: 240 nM
GI50 [10]: 641 nM
TGI [10]: 8.52 µM
GI50 [11]: 62 nM
TGI [11]: 441 nM
GI50 [12]: 777 nM
TGI [12]: 2360 nM
GI50 [13]: 422 nM
TGI [13]: 57.2 µM
GI50 [14]: 644 nM
TGI [14]: 2030 nM
GI50 [15]: 523 nM
TGI [15]: 3.45 µM
GI50 [16]: 201 nM
TGI [16]: 29 µM
GI50 [17]: 134 nM
TGI [17]: 14.3 µM
GI50 [18]: 1640 nM
TGI [18]: 19 µM
GI50 [19]: 557 nM
TGI [19]: 74.2 µM
GI50 [20]: 250 nM
TGI [20]: 1310 nM
GI50 [21]: 345 nM
TGI [21]: 2210 nM
GI50 [22]: 425 nM
TGI [22]: 2020 nM
GI50 [23]: 144 nM
TGI [23]: 287 nM
GI50 [24]: 534 nM
TGI [24]: 11.6 µM
GI50 [25]: 521 nM
TGI [25]: 3.98 µM
GI50 [26]: 447 nM
TGI [26]: > 100 µM
GI50 [27]: 455 nM
TGI [27]: 35.3 µM
GI50 [28]: 439 nM
